Target: T1, human PAH with the R408W mutation (Homo sapiens, UniProt P00439, R408W)
T1 construct: expressed in transfected cells
T1 sequence (P00439 1-452 R408W): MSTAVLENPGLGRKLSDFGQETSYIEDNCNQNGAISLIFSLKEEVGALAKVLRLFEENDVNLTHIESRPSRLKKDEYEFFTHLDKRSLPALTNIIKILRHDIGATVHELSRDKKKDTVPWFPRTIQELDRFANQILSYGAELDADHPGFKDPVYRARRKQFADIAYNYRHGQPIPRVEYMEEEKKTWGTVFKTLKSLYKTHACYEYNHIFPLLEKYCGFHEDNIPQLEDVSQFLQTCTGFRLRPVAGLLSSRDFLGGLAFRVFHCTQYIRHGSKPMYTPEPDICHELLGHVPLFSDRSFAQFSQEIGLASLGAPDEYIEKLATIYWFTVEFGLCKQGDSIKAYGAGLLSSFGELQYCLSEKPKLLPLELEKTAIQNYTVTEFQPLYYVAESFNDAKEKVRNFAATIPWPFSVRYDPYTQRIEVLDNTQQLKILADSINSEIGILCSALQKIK
Assay: Cell Based Phenylalanine Flux Assay;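 also: after compound treatment, cells received sepiapterin plus isotope-labelled Phenylalanine for 4 hours, then labelled Tyrosine in the medium was quantified, 10-point 2-fold dilution series run in duplicate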
Settings: A375 cells expressing human PAH R408W; 24 hrs compound incubation; 13C-Tyrosine by LC-MS; average where tested multiple times; read-out: AC50

AC50, > 5 µM:
COc1cccn2nc([C@H]3c4nc[nH]c4CCN3c3ncc(C(F)(F)F)cn3)cc12 [Example 2201, (R)-4-(4-methoxypyrazolo[1,5-a]pyridin-2-yl)-5-(5-(trifluoromethyl)pyrimidin-2-yl)-4,5,6,7-tetrahydro-1H-imidazo[4,5-c]pyridine]
CC(F)(F)c1nnc(N2CCc3[nH]cnc3[C@@H]2c2cc3c(C(F)F)cccn3n2)o1 [Example 2202, (R)-2-(1,1-difluoroethyl)-5-(4-(4-(difluoromethyl)pyrazolo[1,5-a]pyridin-2-yl)-1,4,6,7-tetrahydro-5H-imidazo[4,5-c]pyridin-5-yl)-1,3,4-oxadiazole]
Cc1ncccc1-c1nnc(N2CCc3[nH]cnc3[C@@H]2c2cc3c(C)cccn3n2)o1 [Example 2207, (R)-2-(4-(4-methylpyrazolo[1,5-a]pyridin-2-yl)-1,4,6,7-tetrahydro-5H-imidazo[4,5-c]pyridin-5-yl)-5-(2-methylpyridin-3-yl)-1,3,4-oxadiazole]
FC(F)c1nnc(N2CCc3[nH]cnc3[C@@H]2c2cc3cccc(C(F)F)n3n2)o1 [Example 2220, (R)-2-(difluoromethyl)-5-(4-(7-(difluoromethyl)pyrazolo[1,5-a]pyridin-2-yl)-1,4,6,7-tetrahydro-5H-imidazo[4,5-c]pyridin-5-yl)-1,3,4-oxadiazole]
Cc1ncccc1-c1nnc(N2CCc3[nH]cnc3[C@@H]2c2cc3c(C(C)C)cccn3n2)o1 [Example 2235, (R)-2-(4-(4-isopropylpyrazolo[1,5-a]pyridin-2-yl)-1,4,6,7-tetrahydro-5H-imidazo[4,5-c]pyridin-5-yl)-5-(2-methylpyridin-3-yl)-1,3,4-oxadiazole]
Cc1cccn2nc([C@H]3c4nc[nH]c4CCN3C(=O)c3cnc(-c4cnccn4)o3)cc12 [Example 2241, (R)-(4-(4-methylpyrazolo[1,5-a]pyridin-2-yl)-1,4,6,7-tetrahydro-5H-imidazo[4,5-c]pyridin-5-yl)(2-(pyrazin-2-yl)oxazol-5-yl)methanone]
O=C(c1cnc(-c2cnccn2)o1)N1CCc2[nH]cnc2[C@@H]1c1cc2c(C(F)(F)F)cccn2n1 [Example 2245, (R)-(2-(pyrazin-2-yl)oxazol-5-yl)(4-(4-(trifluoromethyl)pyrazolo[1,5-a]pyridin-2-yl)-1,4,6,7-tetrahydro-5H-imidazo[4,5-c]pyridin-5-yl)methanone]

AC50, 1 to 5 µM:
FC(F)c1nnc(N2CCc3[nH]cnc3[C@H]2c2cc3cccc(C(F)F)n3n2)o1 [Example 2221, (S)-2-(difluoromethyl)-5-(4-(7-(difluoromethyl)pyrazolo[1,5-a]pyridin-2-yl)-1,4,6,7-tetrahydro-5H-imidazo[4,5-c]pyridin-5-yl)-1,3,4-oxadiazole]
O=C([C@H]1CC1(F)F)N1CCc2[nH]cnc2[C@H]1c1cc2c(F)cccn2n1 [Example 2223, ((R)-2,2-difluorocyclopropyl)((S)-4-(4-fluoropyrazolo[1,5-a]pyridin-2-yl)-1,4,6,7-tetrahydro-5H-imidazo[4,5-c]pyridin-5-yl)methanone]
c1cc(C2CC2)c2cc([C@H]3c4nc[nH]c4CCN3c3cnccn3)nn2c1 [Example 2224, (R)-4-(4-cyclopropylpyrazolo[1,5-a]pyridin-2-yl)-5-(pyrazin-2-yl)-4,5,6,7-tetrahydro-1H-imidazo[4,5-c]pyridine]
c1ccc(N2CCc3[nH]cnc3[C@@H]2c2cc3ccccn3n2)cc1 [Example 2238, (R)-5-phenyl-4-(pyrazolo[1,5-a]pyridin-2-yl)-4,5,6,7-tetrahydro-1H-imidazo[4,5-c]pyridine]

AC50, < 0.5 µM:
COc1cccn2nc([C@@H]3c4nc[nH]c4CCN3c3ncc(C(F)(F)F)cn3)cc12 [Example 2200, (S)-4-(4-methoxypyrazolo[1,5-a]pyridin-2-yl)-5-(5-(trifluoromethyl)pyrimidin-2-yl)-4,5,6,7-tetrahydro-1H-imidazo[4,5-c]pyridine]
CC(F)(F)c1nnc(N2CCc3[nH]cnc3[C@H]2c2cc3c(C(F)F)cccn3n2)o1 [Example 2203, (S)-2-(1,1-difluoroethyl)-5-(4-(4-(difluoromethyl)pyrazolo[1,5-a]pyridin-2-yl)-1,4,6,7-tetrahydro-5H-imidazo[4,5-c]pyridin-5-yl)-1,3,4-oxadiazole]
CC(F)(F)c1nnc(N2CCc3[nH]cnc3[C@H]2c2cc3c(C4CC4)cccn3n2)o1 [Example 2205, (S)-2-(4-(4-cyclopropylpyrazolo[1,5-a]pyridin-2-yl)-1,4,6,7-tetrahydro-5H-imidazo[4,5-c]pyridin-5-yl)-5-(1,1-difluoroethyl)-1,3,4-oxadiazole]
c1cc(C2CC2)c2cc([C@@H]3c4nc[nH]c4CCN3c3cnccn3)nn2c1 [Example 2225, (S)-4-(4-cyclopropylpyrazolo[1,5-a]pyridin-2-yl)-5-(pyrazin-2-yl)-4,5,6,7-tetrahydro-1H-imidazo[4,5-c]pyridine]
CC(C)c1cccn2nc([C@@H]3c4nc[nH]c4CCN3c3nnc(C(C)(F)F)o3)cc12 [Example 2231, (S)-2-(1,1-difluoroethyl)-5-(4-(4-isopropylpyrazolo[1,5-a]pyridin-2-yl)-1,4,6,7-tetrahydro-5H-imidazo[4,5-c]pyridin-5-yl)-1,3,4-oxadiazole]
Cc1ncccc1-c1nnc(N2CCc3[nH]cnc3[C@H]2c2cc3c(Cl)cccn3n2)o1 [Example 2236, (S)-2-(4-(4-chloropyrazolo[1,5-a]pyridin-2-yl)-1,4,6,7-tetrahydro-5H-imidazo[4,5-c]pyridin-5-yl)-5-(2-methylpyridin-3-yl)-1,3,4-oxadiazole]
c1ccc(N2CCc3[nH]cnc3[C@H]2c2cc3ccccn3n2)cc1 [Example 2239, (S)-5-phenyl-4-(pyrazolo[1,5-a]pyridin-2-yl)-4,5,6,7-tetrahydro-1H-imidazo[4,5-c]pyridine]

AC50, 0.5 to 1 µM:
Clc1cccn2nc([C@@H]3c4nc[nH]c4CCN3c3nnc(-c4cccnn4)o3)cc12 [Example 2198, (S)-2-(4-(4-chloropyrazolo[1,5-a]pyridin-2-yl)-1,4,6,7-tetrahydro-5H-imidazo[4,5-c]pyridin-5-yl)-5-(pyridazin-3-yl)-1,3,4-oxadiazole]
Cc1ncccc1-c1nnc(N2CCc3[nH]cnc3[C@H]2c2cc3c(C(C)C)cccn3n2)o1 [Example 2234, (S)-2-(4-(4-isopropylpyrazolo[1,5-a]pyridin-2-yl)-1,4,6,7-tetrahydro-5H-imidazo[4,5-c]pyridin-5-yl)-5-(2-methylpyridin-3-yl)-1,3,4-oxadiazole]
Cc1cccn2nc([C@@H]3c4nc[nH]c4CCN3C(=O)c3cnc(-c4cnccn4)o3)cc12 [Example 2240, (S)-(4-(4-methylpyrazolo[1,5-a]pyridin-2-yl)-1,4,6,7-tetrahydro-5H-imidazo[4,5-c]pyridin-5-yl)(2-(pyrazin-2-yl)oxazol-5-yl)methanone]
O=C(c1cnc(-c2cnccn2)o1)N1CCc2[nH]cnc2[C@H]1c1cc2c(C(F)(F)F)cccn2n1 [Example 2244, (S)-(2-(pyrazin-2-yl)oxazol-5-yl)(4-(4-(trifluoromethyl)pyrazolo[1,5-a]pyridin-2-yl)-1,4,6,7-tetrahydro-5H-imidazo[4,5-c]pyridin-5-yl)methanone]
